Values belong to the substance of their own block, whether it stands above or below them. Where no end group is shown, it is not given here.
Tests used:
[1] = molecular target: T1, insulin (Homo sapiens, UniProt P01308); assay: Binding of 125I-insulin to immobilized IBP in microtitre wells
Method: Insulin Binding Peptide, synthesized by OCS Laboratories, Inc., Denton, Tex., was immobilized in the wells of flexible, U-bottom 96-well polyvinyl chloride microtitre plates (Falcon, Becton Dickinson Labware). To each well was added 100 ul of the peptide (5 ug/ml in 0.1 M sodium carbonate, pH 9.6). The peptide was allowed to adsorb to the well overnight at 4° C. Unreacted sites in the wells were blocked with 150 ul of 1% ovalbumin (Sigma Chemical Co.) in 0.1M sodium carbonate, pH 9.6, for 1 h at room temperature. The wells were washed two times with phosphate-buffered saline (PBS) containing 0.1% BSA (Fraction V, Sigma Chemical Co.), and then incubated with ^125 I-insulin in PBS, 0.1% BSA, for 3 h at room temperature. The wells were then washed 3 times with PBS-0.1% BSA, and were then excised from the plate and counted in a gamma counter. Total binding of insulin to the IBP was determined with iodinated insulin alone. Nonspecific binding was determined in the presence of radiolabeled insulin plus 3 uM unlabeled insulin. Specific binding was calculated as the difference between total and nonspecific binding. All values are reported as specific binding, unless otherwise indicated. All determinations (both total and nonspecific) were performed in triplicate. Insulin was iodinated by the method of Chloramine T, as previously described (Gavin et al., Proc. Nat. Acad. Sci., Vol. 71, p. 84-88 (1974)).
The peptide was immobilized in the bottom of 96-well microtitre plates, and at zero time, 2 nM ^125 I-insulin, in the absence or presence of 3 uM unlabeled insulin, was added to each of the wells. At the indicated times, the wells were washed with cold PBS, the washed wells were cut from the dish and counted for radioactivity. The indicated data points are average values of specifically bound insulin, and the error bars indicate the range of the data. At 25° C., the binding attained equilibrium within 1.5 h, with a half-time of approximately 20 min. At 4° C., the binding process is slightly slower, requiring approximately 2 h to attain an equilibrium level of binding.
The peptide was immobilized in the bottom of 96-well microtitre plates, and ^125 I-insulin, in the absence or presence of 3 uM unlabeled insulin, was added to the wells. Following incubation at 25° C. for 3 h, the wells were washed, cut from the dish, and counted, as described above. The indicated data points of FIG. 2 are average values of specifically bound insulin, the error bars indicate the range of the data.

[2] = molecular target: T1, insulin; assay: Binding of 125I-insulin to various immobilized peptides; conditions: peptide immobilized from 5 ug/ml; 2 nM 125I-insulin
Method: The binding specificity of iodinated insulin for immobilized peptides was determined. Peptides of various sequences and sizes were immobilized in microtitre wells, as described in Example 1. The peptides utilized were IBP (CVEEAS) and a series of control peptide having the following designations and amino acid sequences: S28, TTHYQKG; S79, AQGHRPQDEG; S81, YGSLPQKAQGHRPQDEG; S82, THYGSLPQKAQGHRPQDEG; and EAE, FSWGAEGQR.
Peptides were dissolved in buffer at a concentration of 5 ug/ml, and immobilized in the wells of the microtitre plate. The immobilized peptides were then incubated with 2 nM ^125 I-insulin in the absence or presence of 3 uM unlabeled insulin, as described above. The specific binding of insulin to immobilized peptide is indicated, alone with the binding as a percentage of the binding of insulin to immobilized IBP. The peptides utilized are indicated on the abcissa. The respective relative binding of insulin (shown in FIG. 5) was IBP-100%, S28-0.3%, S79-1.5%, S81-0.6%, S82-0.2% and EAE-0.3%.

[3] = Binding of iodinated polypeptide hormones to immobilized IBP; conditions: 2 nM iodinated hormone; room temperature 3 h
Method: The specificity of the binding of IBP to insulin was determined by incubating iodinated calcitonin, parathyroid hormone or atrial naturiuretic peptide with immobilized IBP. The binding of insulin to IBP appears to be a specific process. The specific binding of the low molecular weight polypeptide hormones calcitonin, parathyroid hormone and atrial naturiuretic peptide is less than 1% of the level of the specific binding of insulin (Ins) to IBP. The insulin-binding peptide was immobilized in the bottom of 96-well microtitre plates. To the wells were then added 2 nM iodinated polypeptide hormones in the absence or presence of at least a 1000-fold excess of unlabeled hormone. Following incubation at room temperature for 3 h, the wells were washed, excised from the plate and ^125 I measured as described above. The specific binding of hormone to the wells is indicated, along with the binding as a percentage of the binding of insulin to the wells. The polypeptide hormones utilized are indicated on the abcissa: Cal, calcitonin; PTH, parathyroid hormone; ANP, atrial naturiuretic peptide; Ins, insulin.

T1 sequence (P01308 25-54 limits assumed, species assumed): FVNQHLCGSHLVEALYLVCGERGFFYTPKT
T1 sequence (P01308 90-110 partner limits assumed, species assumed): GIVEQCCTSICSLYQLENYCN

Substance: CVEEAS [IBP, NH2 -Cys-Val-Glu-Glu-Ala-Ser-COOH]
time to attain an equilibrium level of binding ([1]; 4° C., 2 nM 125I-insulin): approximately 2 h | half-time of binding ([1]; 25° C., 2 nM 125I-insulin): approximately 20 min | time for binding to attain equilibrium ([1]; 25° C., 2 nM 125I-insulin): ≤ 1.5 h | Kd ([1]; IBP immobilized on plastic surface, 125I-insulin, 25° C. for 3 h, read-out: Kd of insulin binding to immobilized IBP (Scatchard)): 3 nM

Substance: parathyroid hormone
specific binding to IBP as percentage of the specific binding of insulin [3]: less than 1%

Substance: calcitonin
specific binding to IBP as percentage of the specific binding of insulin [3]: less than 1%

Substance: FSWGAEGQR [EAE, FSWGAEGQR]
relative binding of insulin to immobilized peptide, as percentage of binding to immobilized IBP [2]: 0.3%

Substance: atrial naturiuretic peptide
specific binding to IBP as percentage of the specific binding of insulin [3]: less than 1%

Results, then the substance that gave them:

relative binding of insulin to immobilized peptide, as percentage of binding to immobilized IBP [2]: 1.5%
Substance: AQGHRPQDEG [S79, AQGHRPQDEG]

relative binding of insulin to immobilized peptide, as percentage of binding to immobilized IBP [2]: 0.2%
Substance: THYGSLPQKAQGHRPQDEG [S82, THYGSLPQKAQGHRPQDEG]

relative binding of insulin to immobilized peptide, as percentage of binding to immobilized IBP [2]: 0.6%
Substance: YGSLPQKAQGHRPQDEG [S81, YGSLPQKAQGHRPQDEG]

relative binding of insulin to immobilized peptide, as percentage of binding to immobilized IBP [2]: 0.3%
Substance: TTHYQKG [S28, TTHYQKG]

— US4888414A, “Insulin-binding peptides and uses thereof” (Board of Regents, University of Texas System, priority 1987, dated 1989)
